For 97 molecules, cytotoxicity results are on record in ChEMBL document CHEMBL3507680, “University of Dundee, Gates Library screen for HepG2 cell viability”.

This data set in a line: Human HepG2 cell viability assay in 384 well format. The class given is toxicity, cell-based. Also on record: dose 125 nL, time 70.5 hour; cytotoxicity at 70.5 h: concentration not given beside the values. The conditions noted are these: HepG2 cells, read-out: Inhibition.

In the case of `CC1=Nc2c(c(=O)[nH]n2C2CCOCC2)C(c2cccc(Br)c2)S1` (configuration not stated), the cytotoxicity at 70.5 h is 4.78%. As for `COc1ccc2nnc(CCCC(=O)NCc3cccn3C)n2n1`, the cytotoxicity at 70.5 h came out at 6.5%. The figure for `O=C1CSC(c2ccsc2)c2c(n(C3CCOCC3)[nH]c2=O)N1` (configuration not stated) is 27.6%; for `CNC(=O)c1cccnc1Oc1ccccc1` it is -5.8%; for `CCOC(=O)CN1CCC2(CC1)CC(=O)c1ccc(OC)cc1O2` it is 2.89%.

With `CCc1ccc(NC(=O)C2OC(c3cccs3)=NN2C(C)=O)cc1` (configuration not stated), the cytotoxicity at 70.5 h was 40.2%.

In the case of `O=C(Cc1c(F)cccc1F)N1CCN(CC(=O)N2CCCC2)CC1`, the cytotoxicity at 70.5 h was -5.05%. The figure for `Cc1n[nH]c2c1C(c1ccsc1)SCC(=O)N2` (configuration not stated) is 8.67%; for `COc1ccc(C(=O)N2CCCC2c2ccco2)cc1OC` (configuration not stated) it is -12.1%.

`CCOc1nc2cccnc2n(CC(=O)NCCOC)c1=O`: the cytotoxicity at 70.5 h was -14.5%. For the molecule `CCc1ccc(NC(=O)c2cnc(N3CCN(C)CC3)nc2C)cc1`, the cytotoxicity at 70.5 h was found to be 36.8%. For the molecule `COc1ccc(OC)c(NC(=O)c2nc3ccccc3n(C)c2=O)c1`, the cytotoxicity at 70.5 h is -7.65%.

As to `COc1cccc(CN2CCCCCC2c2cccc(C)c2)c1O` (configuration not stated), the cytotoxicity at 70.5 h was 6.46%. For the molecule `COC(=O)c1cccc(C(=O)N2CCN(c3ccccc3F)CC2)n1`, the cytotoxicity at 70.5 h was 28.8%. The figure for `O=C(Cn1ccc2sccc2c1=O)NCc1ccc2c(c1)OCO2` is -6.54%; for `CCCS(=O)(=O)Nc1ccc2c(c1)OCC(C)(C)C(=O)N2C` it is 7.24%; for `COc1cccc(CNc2c(C)cnc3c2c(=O)n(C)c(=O)n3C)c1` it is 35.6%.

Regarding `Cc1cnc2c(c1NCc1ccncc1)c(=O)n(C)c(=O)n2C`, the cytotoxicity at 70.5 h was -2.95%. As for `CCc1cnc2c(c1Nc1ccc(OC)cc1)c(=O)n(C)c(=O)n2C`, the cytotoxicity at 70.5 h turned out to be 21.4%. In the case of `CCc1cnc2c(c1NCc1cccc(OC)c1)c(=O)n(C)c(=O)n2C`, the cytotoxicity at 70.5 h was 33.7%. The result for `COCCNC(=O)Cn1nc(C(C)C)c2cnn(C(C)(C)C)c2c1=O` reads -3.75%; that for `CCCC(=O)Nc1sc(C(=O)OCC)c(C)c1C#N`, -2.39%; that for `CCCc1cc(=O)n(CC(N)=O)c(-n2nc(C)cc2C)n1`, -4.18%. The result for `CC1CCN(S(=O)(=O)c2cccn(CC(=O)NC3CCCC3)c2=O)CC1` reads -3.39%; that for `COc1ccc(Br)c(C(=O)NCC2CCN(S(=O)(=O)C3CC3)CC2)c1`, 16.8%; that for `CCOc1ccc(NC(=O)CN2CCN(c3nccn3C)CC2)cc1`, -2.94%. The figure for `COc1ccc(C(=O)NCC(c2cccn2C)N2CCCC2)c(OC)c1` (configuration not stated) is 14.2%. Regarding `Cn1cccc1C(CNC(=O)c1ccc(F)cc1F)N1CCCCCC1` (configuration not stated), the cytotoxicity at 70.5 h was determined as 34.1%. Regarding `COc1ccc(C)cc1S(=O)(=O)NCC(c1cccn1C)N(C)C` (configuration not stated), the cytotoxicity at 70.5 h is -3.74%. Turning to `Cc1cccc(C(=O)NCCCN2CCN(c3ccccc3)CC2)c1`, the cytotoxicity at 70.5 h worked out at 7.06%. The figure for `COc1ncccc1C(=O)N1CCC(c2nnc(C3CC3)o2)CC1` is 4.57%; for `COc1nn(C)cc1C(=O)N1CCC(c2nnc(C3CC3)o2)CC1` it is -1.01%. The figure for `O=C(NCC(Cc1cccc(F)c1)N1CCCC1=O)c1ccccc1` (configuration not stated) is 4.11%; for `O=S(=O)(Cc1ccccc1)NCC1CCN(c2cnccn2)CC1` it is 4.32%; for `Cc1nc(CNC(=O)C(C)Oc2ccccc2F)no1` (configuration not stated) it is -5.02%. Turning to `COc1ccc(OC)c([C@@H]2N[C@H](c3nccs3)Cc3ccsc32)c1`, the cytotoxicity at 70.5 h is -11.6%.

`CCOc1cc([C@H]2N[C@@H](c3nc(C)cs3)Cc3ccsc32)ccc1OC`: the cytotoxicity at 70.5 h was -6.01%.

For `CCS(=O)(=O)N1C[C@@H](C(=O)NC(C)C)[C@@]2(Cc3ccccc3C(=O)N2)C1`, the cytotoxicity at 70.5 h is -11.3%. The figure for `COc1cc(C(=O)NC(C)(C)CN2CCN(C)CC2)c2ccccc2n1` is -11.5%; for `OC1CCCOC12CCN(CCCOc1ccccc1F)CC2` (configuration not stated) it is -10.9%; for `CC(C)(C)NC(=O)[C@@H]1CNC[C@]12Cc1ccccc1C(=O)N2` it is -4.03%.

For `CCC1CCCCN1C(=O)Cn1nc(-c2ccc(C)o2)cc(N)c1=O` (configuration not stated), the cytotoxicity at 70.5 h is -15.1%. The result for `CN1C[C@@H](C(=O)NC2CC2)[C@@]2(COc3ccc(F)cc3C2=O)C1` reads 12.2%. As to `CN(C)Cc1cnc(C2CCN(C(=O)c3cccc(F)c3)C2)[nH]1` (configuration not stated), the cytotoxicity at 70.5 h stood at 20.2%. The result for `CN(C)Cc1cnc(C2CCN(C(=O)c3cc(F)cc(F)c3)C2)[nH]1` (configuration not stated) reads -2.53%; that for `CNC(=O)C1(Cc2cc(C(C)C)no2)CCN(Cc2cccnc2)C1` (configuration not stated), -5.78%. With `CO[C@H]1C[C@@H]2CN(C(=O)c3cccc4c3OCCO4)C[C@@H]2C1`, the cytotoxicity at 70.5 h came to 20.7%. The result for `Cc1noc(C)c1-c1cc(CCC2CN(C(=O)C(C)C)CCO2)ncn1` (configuration not stated) reads -3.99%; that for `O[C@H]1CN(CCCOc2ccccc2F)CC[C@@]12CCCO2`, -2.73%; that for `Cc1cc(C(F)F)nn1C(C)C(=O)NCc1ncc[nH]1` (configuration not stated), -1.75%. On to `Cc1cncc(C2CCN(Cc3ccsc3)CC2)n1`, for which the cytotoxicity at 70.5 h turned out to be 4.8%. The result for `CNC(=O)C1CN(C(=O)c2cccnc2)CCN(S(C)(=O)=O)C1` (configuration not stated) reads -4.31%; that for `Cc1nccc(N(C)Cc2ncc(-c3ccccc3C(=O)O)s2)n1`, -1.97%; that for `CS(=O)(=O)N1CCC(c2cnc(-c3cn[nH]c3)cn2)CC1`, 0.854%. The result for `CNC(=O)C1CN(C)CCN(C(=O)CCn2nnc3ccccc32)C1` (configuration not stated) reads 0.266%. The figure for `Cn1ccc(C(=O)N2CCc3[nH]nc(Nc4ccccc4)c3C2)n1` is 1.75%; for `CNC(=O)C1CN(C(=O)c2cccs2)CCN(S(C)(=O)=O)C1` (configuration not stated) it is -2.89%; for `CC(=O)N1CCOCC(Cc2ccc3c(ccn3C(C)=O)c2)C1` (configuration not stated) it is -2.4%.

Take `c1cncc(CN2CCCCC2c2ccc(Nc3cnccn3)nc2)c1` (configuration not stated): the cytotoxicity at 70.5 h is -5.32%.

`O=C(Cc1cccnc1)N1CCC(c2nnc(-c3ccccn3)o2)CC1`: the cytotoxicity at 70.5 h is 25.5%. For the molecule `CNC(=O)C1CN(C(=O)c2ccccc2)Cc2cn(C)nc21` (configuration not stated), the cytotoxicity at 70.5 h is 26.9%.

With `COc1cc(CCC(=O)N2CCC(c3cc4nccnc4[nH]3)CC2)on1`, the cytotoxicity at 70.5 h was found to be 28.5%. The figure for `Cc1nn(C)cc1CN1CCN(CC2(c3ccccc3)CC2)CC1` is -1.67%; for `CC(=O)N1C[C@H](c2cc(O)nc(C)n2)[C@@H](c2ccccc2F)C1` it is -2.65%. As for `CN(CCc1ccccc1)Cc1cnc(C2(C)CCCCO2)nc1` (configuration not stated), the cytotoxicity at 70.5 h amounted to 1.38%.

As for `COCCC(=O)N1C[C@@H](O)[C@H](N2CCN(c3ccccc3)CC2)C1`, the cytotoxicity at 70.5 h is -2.33%. As for `Cc1n[nH]c(C)c1CC(=O)N1CC[C@@](C)(O)[C@H](Oc2ccccc2)C1`, the cytotoxicity at 70.5 h was -6.16%. The figure for `Nc1ncnc2nc(C3CCN(C(=O)Cc4ccccc4)C3)ccc12` (configuration not stated) is 13.4%; for `COC(=O)c1cccc(C2CNCCN2C)c1` (configuration not stated) it is 12%; for `Cc1nc(-c2c(C)noc2C)cc(C2CCN(S(=O)(=O)N(C)C)CC2)n1` it is -8.98%. The figure for `CN1CCCC1c1nnc2n1CCN(S(=O)(=O)c1ccccc1Cl)CC2` (configuration not stated) is -8.1%; for `CC(=O)Nc1ccc(CN2CCCC(c3cc4ncccc4[nH]3)C2)cc1` (configuration not stated) it is -5.47%; for `CNc1cncc(C2CCCN2C(=O)Cn2ccnc2C)n1` (configuration not stated) it is -5.3%. The result for `N[C@@H]1CCCN(C(=O)Cc2c[nH]c3ccccc23)[C@H]1c1ccccc1F` reads 23.2%; that for `Cc1cc(-c2cnc(N(C)C)nc2C2CCCCN2C(=O)C2CC2)on1` (configuration not stated), -3.37%. Consider `O=S(=O)(c1cccc(F)c1)N1CCCCC1c1ccn[nH]1` (configuration not stated), for which the cytotoxicity at 70.5 h was -7.34%. `Cc1nc(-c2cccc(C(=O)O)c2)cc(C2CCCN(C(C)C)C2)n1` (configuration not stated): the cytotoxicity at 70.5 h was 13.2%. `COc1ccccc1CN1CC[C@H]2[C@@H](C1)[C@H](c1ccsc1)CN2C(C)=O`: the cytotoxicity at 70.5 h worked out at 18.4%. The result for `Cn1cc(C(=O)N2CCCC(CN3CCCC3=O)C2)cn1` (configuration not stated) reads -7.83%; that for `O=C(NC[C@]1(O)CN(Cc2ccccc2F)C[C@H]1O)c1cscn1`, -8.78%; that for `Cc1nccn1CC1CCCN(C(=O)c2cnn(C)c2)C1` (configuration not stated), -12.8%.

Take `O=C(O)c1ccccc1-c1ccc(CN2CC(O)C2)cc1`: the cytotoxicity at 70.5 h is -11.6%.

For `COc1cccc(-c2noc(C3CCN(CC(N)=O)C3)n2)c1` (configuration not stated), the cytotoxicity at 70.5 h is -4.11%. The figure for `Cc1csc(Nc2cc(C3CCCCN3C)nc(C)n2)n1` (configuration not stated) is 0.668%; for `c1ccc(CN2CCCC(c3nccnc3-n3ccnc3)C2)cc1` (configuration not stated) it is -17.5%; for `O=C(CO)N1CCC(c2cncc(-c3cccc(Cl)c3)n2)CC1` it is -3.18%. As for `CN(C)c1ncc(CN2CCOC(C(=O)Nc3ccccc3)C2)cn1` (configuration not stated), the cytotoxicity at 70.5 h was -6.09%. As for `Nc1nc(C2CCN(C(=O)c3cscn3)CC2)cs1`, the cytotoxicity at 70.5 h was -18.4%. The figure for `Cc1nnc(Nc2cccc(C3CCN(CCO)CC3)n2)s1` is -13.5%; for `COCC(=O)N(C)Cc1nc(N2CCCC2)ncc1-c1ccncc1` it is 13.6%. For `COc1ccc(Cn2c(C3CCNCC3)cc3cccnc32)cc1`, the cytotoxicity at 70.5 h turned out to be 3.16%. For `O[C@@H]1CN(Cc2ccc(F)c(F)c2)CC[C@H]1NCc1ccccn1`, the cytotoxicity at 70.5 h was found to be 22.5%. As to `CN(C)Cc1cnc(C2CCN(C(=O)c3ccccc3F)C2)[nH]1` (configuration not stated), the cytotoxicity at 70.5 h is -3.2%. In the case of `CN(Cc1nc(N2CCCC2)ncc1-c1ccncc1)C(=O)C(C)(C)C`, the cytotoxicity at 70.5 h was -2.37%. The result for `CC1(C(=O)N2CCOCC2)CNCCO1` (configuration not stated) reads -7.18%. With `Cc1ccc(CNC(=O)CN2CCN(CC(O)C3CC3)CC2)cc1` (configuration not stated), the cytotoxicity at 70.5 h is -8.6%. Regarding `Cc1ccc(CNC(=O)CN2CCN(CC(O)c3ccco3)CC2)cc1` (configuration not stated), the cytotoxicity at 70.5 h is 29.2%.
